ChEMBL document CHEMBL3044875, “Synthesis and antimicrobial activity of some bisoctahydroxanthene-1,8-dione derivatives” (2011)
Activity calls are given as the source filed them. The rule behind the calls is not given here.

What was measured:
Pseudomonas aeruginosa [1] = experiment: Antibacterial activity against Pseudomonas aeruginosa ATCC 27853 at 140 ug/disk after 24 hr by disk-diffusion method; format: functional, organism-based
Candida albicans [2] = experiment: Antifungal activity against Candida albicans ATCC 10231 at 20 ug/disk after 48 hr by disk-diffusion method; format: functional
Bacillus cereus [3] = experiment: Antibacterial activity against Bacillus cereus NRRL 3711 at 40 ug/disk after 24 hr by disk diffusion method; format: functional
Proteus vulgaris [4] = experiment: Antibacterial activity against Proteus vulgaris NRRL-B-123 at 140 ug/disk after 24 hr by disk diffusion method; format: functional, organism-based
[5] = tested on: Staphylococcus epidermidis; experiment: Antibacterial activity against Staphylococcus epidermidis ATCC 12228 at 40 ug/disk after 24 hr by disk diffusion method; format: functional
Pseudomonas aeruginosa [6] = experiment: Antibacterial activity against Pseudomonas aeruginosa ATCC 27853 at 40 ug/disk after 24 hr by disk-diffusion method; format: functional, organism-based
[7] = tested on: Staphylococcus epidermidis; experiment: Antibacterial activity against Staphylococcus epidermidis ATCC 12228 at 20 ug/disk after 24 hr by disk diffusion method; format: functional, organism-based
Staphylococcus aureus [8] = experiment: Antibacterial activity against Staphylococcus aureus ATCC 25923 at 40 ug/disc after 24 hr by disk diffusion method; format: functional
Nocardia [9] = experiment: Antibacterial activity against Nocardia canis at 140 ug/disk after 24 hr by disk diffusion method; format: functional
Pseudomonas aeruginosa [10] = experiment: Antibacterial activity against Pseudomonas aeruginosa ATCC 27853 at 20 ug/disk after 24 hr by disk-diffusion method; format: functional, organism-based
Rhodotorula mucilaginosa [11] = experiment: Antifungal activity against Rhodotorula mucilaginosa at 20 ug/disk after 48 hr by disk diffusion method; format: functional
Escherichia coli [12] = experiment: Antibacterial activity against Escherichia coli ATCC 25922 at 140 ug/disk after 24 hr by disk-diffusion method; format: functional
Aspergillus niger [13] = experiment: Antifungal activity against Aspergillus niger ATCC 10949 at 40 ug/disk after 72 hr by disk diffusion method; format: functional, organism-based
Candida albicans [14] = experiment: Antifungal activity against Candida albicans ATCC 10231 at 40 ug/disk after 48 hr by disk-diffusion method; format: functional; settings: for zone of inhibition at 40 µg/disc: ATCC 10231, 48 h, read-out: DIZ
Escherichia coli [15] = experiment: Antibacterial activity against Escherichia coli ATCC 25922 at 40 ug/disk after 24 hr by disk-diffusion method; format: functional
Nocardia [16] = experiment: Antibacterial activity against Nocardia canis at 20 ug/disk after 24 hr by disk diffusion method; format: functional, organism-based
Rhodotorula mucilaginosa [17] = experiment: Antifungal activity against Rhodotorula mucilaginosa at 140 ug/disk after 48 hr by disk diffusion method; format: functional
Aspergillus niger [18] = experiment: Antifungal activity against Aspergillus niger ATCC 10949 at 20 ug/disk after 72 hr by disk diffusion method; format: functional, organism-based
Candida albicans [19] = experiment: Antifungal activity against Candida albicans ATCC 10231 at 140 ug/disk after 48 hr by disk-diffusion method; format: functional; settings: for zone of inhibition at 140 µg/disc: ATCC 10231, 48 h, read-out: DIZ
[20] = tested on: Staphylococcus epidermidis; experiment: Antibacterial activity against Staphylococcus epidermidis ATCC 12228 at 140 ug/disk after 24 hr by disk diffusion method; format: functional
Rhodotorula mucilaginosa [21] = experiment: Antifungal activity against Rhodotorula mucilaginosa at 40 ug/disk after 48 hr by disk diffusion method; format: functional
Staphylococcus aureus [22] = experiment: Antibacterial activity against Staphylococcus aureus ATCC 25923 at 140 ug/disc after 24 hr by disk diffusion method; format: functional
Proteus vulgaris [23] = experiment: Antibacterial activity against Proteus vulgaris NRRL-B-123 at 40 ug/disk after 24 hr by disk diffusion method; format: functional, organism-based
Proteus vulgaris [24] = experiment: Antibacterial activity against Proteus vulgaris NRRL-B-123 at 20 ug/disk after 24 hr by disk diffusion method; format: functional, organism-based
Staphylococcus aureus [25] = experiment: Antibacterial activity against Staphylococcus aureus ATCC 25923 at 20 ug/disc after 24 hr by disk diffusion method; format: functional
Bacillus cereus [26] = experiment: Antibacterial activity against Bacillus cereus NRRL 3711 at 20 ug/disk after 24 hr by disk diffusion method; format: functional
Bacillus cereus [27] = experiment: Antibacterial activity against Bacillus cereus NRRL 3711 at 140 ug/disk after 24 hr by disk diffusion method; format: functional
Nocardia [28] = experiment: Antibacterial activity against Nocardia canis at 40 ug/disk after 24 hr by disk diffusion method; format: functional
Escherichia coli [29] = experiment: Antibacterial activity against Escherichia coli ATCC 25922 at 20 ug/disk after 24 hr by disk-diffusion method; format: functional
Aspergillus niger [30] = experiment: Antifungal activity against Aspergillus niger ATCC 10949 at 140 ug/disk after 72 hr by disk diffusion method; format: functional; settings: for zone of inhibition at 140 µg/disc: ATCC 10949, 72 h, read-out: DIZ
[31] = ATCC 25923, 24 h, read-out: DIZ

Compound	diameter of the inhibition zone (DIZ) (Pseudomonas aeruginosa [1])	diameter of the inhibition zone (DIZ) (Candida albicans [2])	diameter of the inhibition zone (DIZ) (Bacillus cereus [3])	diameter of the inhibition zone (DIZ) (Proteus vulgaris [4])	diameter of the inhibition zone (DIZ) [5]	diameter of the inhibition zone (DIZ) (Pseudomonas aeruginosa [6])	diameter of the inhibition zone (DIZ) [7]	diameter of the inhibition zone (DIZ) (Staphylococcus aureus [8])	diameter of the inhibition zone (DIZ) (Nocardia [9])	diameter of the inhibition zone (DIZ) (Pseudomonas aeruginosa [10])	diameter of the inhibition zone (DIZ) (Rhodotorula mucilaginosa [11])	diameter of the inhibition zone (DIZ) (Escherichia coli [12])	diameter of the inhibition zone (DIZ) (Aspergillus niger [13])	diameter of the inhibition zone (DIZ) (Escherichia coli [15])	diameter of the inhibition zone (DIZ) (Nocardia [16])	diameter of the inhibition zone (DIZ) (Aspergillus niger [18])	diameter of the inhibition zone (DIZ) (Proteus vulgaris [23])	diameter of the inhibition zone (DIZ) (Proteus vulgaris [24])	diameter of the inhibition zone (DIZ) (Nocardia [28])	diameter of the inhibition zone (DIZ) (Escherichia coli [29])	also measured
CC1(C)CCC2=C(C1=O)C(c1ccc(C3C4=C(CCC(C)(C)C4=O)OC4=C3C(=O)C(C)(C)CC4)cc1)C1=C(CCC(C)(C)C1=O)O2	inactive	inactive	inactive	inactive	inactive	inactive	inactive	inactive	inactive	inactive	inactive	inactive	inactive	inactive	inactive	inactive	inactive	inactive	inactive	inactive	diameter of the inhibition zone (DIZ) (Candida albicans [14]): inactive; diameter of the inhibition zone (DIZ) (Rhodotorula mucilaginosa [17]): inactive; diameter of the inhibition zone (DIZ) (Candida albicans [19]): inactive; diameter of the inhibition zone (DIZ) [20]: inactive; diameter of the inhibition zone (DIZ) (Rhodotorula mucilaginosa [21]): inactive; diameter of the inhibition zone (DIZ) (Staphylococcus aureus [22]): inactive; diameter of the inhibition zone (DIZ) (Staphylococcus aureus [25]): inactive; diameter of the inhibition zone (DIZ) (Bacillus cereus [26]): inactive; diameter of the inhibition zone (DIZ) (Bacillus cereus [27]): inactive; zone of inhibition at 140 µg/disc (Aspergillus niger [30]): 7 mm
COc1ccc(C2CC(=O)C3=C(C2)OC2=C(C(=O)CC(c4ccc(OC)c(OC)c4)C2)C3c2ccc(C3C4=C(CC(c5ccc(OC)c(OC)c5)CC4=O)OC4=C3C(=O)CC(c3ccc(OC)c(OC)c3)C4)cc2)cc1OC (stereo not given)	inactive	inactive	inactive	inactive	inactive	inactive	inactive	inactive	inactive	inactive	inactive	inactive	inactive	inactive	inactive	inactive	inactive	inactive	inactive	inactive	zone of inhibition at 40 µg/disc (Candida albicans [14]): 7 mm; diameter of the inhibition zone (DIZ) (Rhodotorula mucilaginosa [17]): inactive; zone of inhibition at 140 µg/disc (Candida albicans [19]): 7 mm; diameter of the inhibition zone (DIZ) [20]: inactive; diameter of the inhibition zone (DIZ) (Rhodotorula mucilaginosa [21]): inactive; diameter of the inhibition zone (DIZ) (Staphylococcus aureus [22]): inactive; diameter of the inhibition zone (DIZ) (Staphylococcus aureus [25]): inactive; diameter of the inhibition zone (DIZ) (Bacillus cereus [26]): inactive; diameter of the inhibition zone (DIZ) (Bacillus cereus [27]): inactive; diameter of the inhibition zone (DIZ) (Aspergillus niger [30]): inactive
O=C1CCCC2=C1C(c1ccc(C3C4=C(CCCC4=O)OC4=C3C(=O)CCC4)cc1)C1=C(CCCC1=O)O2	inactive	–	–	inactive	inactive	inactive	inactive	–	inactive	inactive	–	inactive	inactive	inactive	inactive	inactive	inactive	inactive	inactive	inactive	zone of inhibition at 20 µg/disc (Candida albicans [2]; ATCC 10231, 48 h, read-out: DIZ): 7 mm; zone of inhibition at 40 µg/disc (Bacillus cereus [3]; NRRL 3711, 24 h, read-out: DIZ): 9 mm; zone of inhibition at 40 µg/disc (Staphylococcus aureus [8]; [31]): 10 mm; zone of inhibition at 20 µg/disc (Rhodotorula mucilaginosa [11]; read-out: DIZ): 8 mm; zone of inhibition at 40 µg/disc (Candida albicans [14]): 8 mm; zone of inhibition at 140 µg/disc (Rhodotorula mucilaginosa [17]; read-out: DIZ): 10 mm; zone of inhibition at 140 µg/disc (Candida albicans [19]): 8 mm; zone of inhibition at 140 µg/disc ([20]; ATCC 12228, 24 h, read-out: DIZ): 7 mm; zone of inhibition at 40 µg/disc (Rhodotorula mucilaginosa [21]; read-out: DIZ): 9 mm; zone of inhibition at 140 µg/disc (Staphylococcus aureus [22]; [31]): 14 mm; zone of inhibition at 20 µg/disc (Staphylococcus aureus [25]; [31]): 8 mm; zone of inhibition at 20 µg/disc (Bacillus cereus [26]; NRRL 3711, 24 h, read-out: DIZ): 8 mm; zone of inhibition at 140 µg/disc (Bacillus cereus [27]; NRRL 3711, 24 h, read-out: DIZ): 8 mm; zone of inhibition at 140 µg/disc (Aspergillus niger [30]): 7 mm
